Experimental data: ChEMBL document CHEMBL5634188, “Expanding TPD Horizons: Innovative Strategies Targeting BCL6 and SMARCA2” (ACS Med Chem Lett, 2024)

What was measured:
Type in all cases: cell-based
[1] = biological target: T1, Protein cereblon/SWI/SNF-related matrix-associated actin-dependent regulator of chromatin subfamily A member 2 (Homo sapiens, UniProt P51531+Q96SW2); assay: PROTAC activity at CRBN/N-terminal HiBiT-tagged SMARCA2 in human A549 cells assessed as induction of SMARCA2 degradation incubated for 6 hrs by Nano-Glo HiBiT Lytic reagent based luminescence plate reader analysis
[2] = biological target: Protein cereblon/B-cell lymphoma 6 protein (Homo sapiens) (UniProt Q96SW2+P41182); assay: PROTAC activity at CRBN/N-terminal HiBiT tagged BCL6 in human HT-1080 cells assessed as induction of BCL6 degradation by measuring minimum efficacy incubated for 5 hrs by NANO-GLO HiBiT Lytic reagent based luminescence plate reader analysis
[3] = biological target: Protein cereblon/B-cell lymphoma 6 protein (Homo sapiens, UniProt P41182+Q96SW2); assay: PROTAC activity at CRBN/N-terminal HiBiT tagged BCL6 in human HT-1080 cells assessed as induction of BCL6 degradation incubated for 5 hrs by NANO-GLO HiBiT Lytic reagent based luminescence plate reader analysis
[4] = biological target: T1, Protein cereblon/SWI/SNF-related matrix-associated actin-dependent regulator of chromatin subfamily A member 2; assay: PROTAC activity at CRBN/N-terminal HiBiT-tagged SMARCA2 in human A549 cells assessed as induction of SMARCA2 degradation by measuring maximal efficacy incubated for 6 hrs by Nano-Glo HiBiT Lytic reagent based luminescence plate reader analysis relative to control

T1 sequence (P51531 whole entry): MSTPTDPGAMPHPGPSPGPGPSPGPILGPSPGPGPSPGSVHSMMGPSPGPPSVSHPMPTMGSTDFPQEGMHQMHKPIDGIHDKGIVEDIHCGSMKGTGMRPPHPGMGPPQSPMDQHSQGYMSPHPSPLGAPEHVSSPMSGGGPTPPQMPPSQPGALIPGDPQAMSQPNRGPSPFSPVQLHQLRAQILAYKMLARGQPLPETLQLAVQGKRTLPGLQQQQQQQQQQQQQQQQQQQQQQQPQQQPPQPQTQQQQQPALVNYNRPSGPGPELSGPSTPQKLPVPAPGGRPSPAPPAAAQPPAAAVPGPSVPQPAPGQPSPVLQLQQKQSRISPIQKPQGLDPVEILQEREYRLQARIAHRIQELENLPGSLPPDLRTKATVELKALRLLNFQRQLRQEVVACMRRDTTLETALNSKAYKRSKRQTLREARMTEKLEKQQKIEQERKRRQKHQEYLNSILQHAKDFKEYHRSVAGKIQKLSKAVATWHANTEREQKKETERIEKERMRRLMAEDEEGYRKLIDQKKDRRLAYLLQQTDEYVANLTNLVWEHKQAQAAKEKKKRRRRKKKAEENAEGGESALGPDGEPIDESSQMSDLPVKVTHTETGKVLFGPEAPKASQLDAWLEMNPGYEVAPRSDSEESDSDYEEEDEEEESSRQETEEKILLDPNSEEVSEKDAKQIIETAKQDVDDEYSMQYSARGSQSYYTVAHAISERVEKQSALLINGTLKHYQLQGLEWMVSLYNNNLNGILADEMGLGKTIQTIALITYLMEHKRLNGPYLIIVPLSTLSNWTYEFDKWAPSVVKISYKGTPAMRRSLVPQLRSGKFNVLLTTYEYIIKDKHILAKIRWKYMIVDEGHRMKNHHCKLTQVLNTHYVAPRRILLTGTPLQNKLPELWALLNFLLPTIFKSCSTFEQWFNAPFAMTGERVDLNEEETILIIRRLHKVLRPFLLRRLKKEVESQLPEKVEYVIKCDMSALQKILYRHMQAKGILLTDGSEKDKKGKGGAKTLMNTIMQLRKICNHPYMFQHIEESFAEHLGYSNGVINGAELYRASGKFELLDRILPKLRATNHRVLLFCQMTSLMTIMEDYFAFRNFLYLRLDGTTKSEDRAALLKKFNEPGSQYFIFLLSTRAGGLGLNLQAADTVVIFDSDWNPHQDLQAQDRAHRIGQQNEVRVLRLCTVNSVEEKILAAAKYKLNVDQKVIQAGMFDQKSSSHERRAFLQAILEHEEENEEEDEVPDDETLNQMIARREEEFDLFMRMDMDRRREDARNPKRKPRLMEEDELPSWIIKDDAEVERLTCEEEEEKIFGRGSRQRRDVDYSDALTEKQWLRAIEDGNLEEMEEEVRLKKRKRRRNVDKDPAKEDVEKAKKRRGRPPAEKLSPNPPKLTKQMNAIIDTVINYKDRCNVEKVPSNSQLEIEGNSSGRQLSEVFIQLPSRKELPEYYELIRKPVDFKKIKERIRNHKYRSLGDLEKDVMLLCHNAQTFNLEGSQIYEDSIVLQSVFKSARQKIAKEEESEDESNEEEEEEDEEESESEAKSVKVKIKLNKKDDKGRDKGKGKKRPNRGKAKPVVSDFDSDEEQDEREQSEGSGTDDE
T1 sequence (Q96SW2 whole entry): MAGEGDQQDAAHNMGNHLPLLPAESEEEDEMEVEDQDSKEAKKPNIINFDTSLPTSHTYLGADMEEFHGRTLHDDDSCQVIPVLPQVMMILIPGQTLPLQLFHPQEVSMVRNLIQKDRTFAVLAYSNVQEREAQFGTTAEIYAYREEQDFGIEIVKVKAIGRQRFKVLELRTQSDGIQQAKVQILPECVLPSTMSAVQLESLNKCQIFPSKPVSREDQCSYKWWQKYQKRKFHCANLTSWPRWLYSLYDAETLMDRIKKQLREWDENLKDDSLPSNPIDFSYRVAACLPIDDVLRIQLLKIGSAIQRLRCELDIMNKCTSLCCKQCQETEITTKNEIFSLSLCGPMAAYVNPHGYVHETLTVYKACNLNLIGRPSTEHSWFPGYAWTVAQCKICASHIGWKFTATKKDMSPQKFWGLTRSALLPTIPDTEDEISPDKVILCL
Sequence of Protein cereblon/B-cell lymphoma 6 protein (Homo sapiens) (Q96SW2 whole entry, looked up, other chains not shown): as the sequence (Q96SW2 whole entry) above
Sequence of Protein cereblon/B-cell lymphoma 6 protein (Q96SW2 whole entry, looked up, other chains not shown): as the sequence (Q96SW2 whole entry) above

Row | SMILES | DC50 [1] | Emin [2] | further results
1 | CN(c1cccc(N2CCC(O)(CC(=O)N3CCC(Oc4cccc(N5[C@@H]6COC[C@H]5CC(c5cc(-c7ccccc7O)nnc5N)C6)c4)CC3)CC2)c1)C1CCC(=O)NC1=O (stereo not given in full) | 0.0131 µM | – | –
2 | C[C@H](C1CCN(c2ncc(Cl)c(Nc3ccc4c(c3)c3c(c(=O)n4C)OCC(F)(F)[C@H](C4CC4)N3)n2)CC1)C1CCN(c2cccc3c(C4CCC(=O)NC4=O)nn(C)c23)CC1 (stereo not given in full) | – | < 30% | EC50 [3]: ≤ 0.025 µM
3 | CN(C(=O)N1CCC(Oc2cccc(N3[C@@H]4COC[C@H]3CC(c3cc(-c5ccccc5O)nnc3N)C4)c2)CC1)C1CCN(c2cccc3c2CCN3[C@@H]2CCC(=O)NC2=O)CC1 (stereo not given in full) | 0.00947 µM | – | –
4 | Nc1nnc(-c2ccccc2O)cc1C1C[C@H]2COC[C@@H](C1)N2c1cccc(OC2CCN(C(=O)CC3(O)CCN(c4cccc5c4CCN5C4CCC(=O)NC4=O)CC3)CC2)c1 (stereo not given in full) | 0.0058 µM | – | Emax [4]: 22.9%
5 | C[C@H]1CN(c2ncc(Cl)c(Nc3ccc4c(c3)c3c(c(=O)n4C)OCC(F)(F)[C@H](C4CC4)N3)n2)CCN1CC1CCN(c2cccc3c(C4CCC(=O)NC4=O)nn(C)c23)CC1 (stereo not given in full) | – | < 30% | –
6 | Nc1nnc(-c2ccccc2O)cc1C1C[C@H]2COC[C@@H](C1)N2c1cccc(OC2CCN(C(=O)CCC3CN(c4cccc5c4CCN5[C@@H]4CCC(=O)NC4=O)C3)CC2)c1 (stereo not given in full) | 0.013 µM | – | –
7 | Cn1nc(C2CCC(=O)NC2=O)c2cccc(N3CCN(CC4CCN(c5ncc(Cl)c(Nc6ccc7c(c6)c6c(c(=O)n7C)OCC(F)(F)[C@H](C7CC7)N6)n5)CC4)CC3)c21 (stereo not given in full) | – | < 30% | –
8 | Cn1c(=O)c2c(c3cc(Nc4nc(N5CCN(CC6CCN(c7cccc8c7C(=O)N(C7CCC(=O)NC7=O)C8=O)CC6)CC5)ncc4Cl)ccc31)N[C@@H](C1CC1)C(F)(F)CO2 (stereo not given in full) | – | < 30% | –
